What all share (assay): Steady-state apparent kinetic constants with substrates
What all share (assay type): biochemical

One assay deals with T1, HvExoI W286F mutant (Hordeum vulgare, UniProt Q9XEI3, W311F).
T1 sequence (Q9XEI3 26-630 W311F): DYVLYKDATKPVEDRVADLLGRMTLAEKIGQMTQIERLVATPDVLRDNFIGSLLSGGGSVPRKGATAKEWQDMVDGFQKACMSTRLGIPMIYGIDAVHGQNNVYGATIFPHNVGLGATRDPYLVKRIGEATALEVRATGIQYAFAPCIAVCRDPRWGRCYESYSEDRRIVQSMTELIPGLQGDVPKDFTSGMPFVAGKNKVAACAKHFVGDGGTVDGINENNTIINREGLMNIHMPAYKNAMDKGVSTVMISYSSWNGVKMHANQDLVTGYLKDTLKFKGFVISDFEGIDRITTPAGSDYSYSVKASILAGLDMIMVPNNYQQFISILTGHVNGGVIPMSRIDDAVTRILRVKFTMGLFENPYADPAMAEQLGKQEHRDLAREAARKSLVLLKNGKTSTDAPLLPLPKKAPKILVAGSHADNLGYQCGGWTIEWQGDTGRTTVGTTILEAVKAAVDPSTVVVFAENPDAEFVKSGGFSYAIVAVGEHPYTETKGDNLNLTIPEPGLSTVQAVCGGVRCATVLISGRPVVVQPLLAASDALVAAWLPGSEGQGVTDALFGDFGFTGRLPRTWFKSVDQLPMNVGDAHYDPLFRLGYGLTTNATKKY
The note with it: substance is the substrate. How it is done:
(§1) Dependency of activities of WT and mutant HvExoI on pH (McIlvaine buffers in the pH range of 3.5–8.5 at 30 °C) and temperature (100 mM sodium acetate buffer, pH 5.25, temperature range 0–80 °C, 15 min incubations) were determined using 0.2% (w/v) 4NP-Glc[21],[59]. Relative rates of hydrolysis of β-linked poly-, oligosaccharides, and aryl-glucosides were determined using near-homogenous HvExoI at 50 pmoles. […] Kinetic parameters were calculated from the analyses of Michaelis-Menten plots with Grafit 7.0.3[62] and processed by a proportional weighted fit, using nonlinear regression. The relative rates of hydrolysis, kinetic, and inhibition data were rounded to one or two decimal points (Supplementary Tables 2–4).

Assay [1] deals with T2, HvExoI W286F/W434F mutant (Hordeum vulgare, UniProt Q9XEI3, W311F/W459F).
T2 sequence (Q9XEI3 26-630 W311F/W459F): T1 sequence (Q9XEI3 26-630 W311F) with W434F
The note with it: substance is the substrate. How it is done: as §1

The next assay concerns the target T3, HvExoI W434F mutant (Hordeum vulgare, UniProt Q9XEI3, W459F).
T3 sequence (Q9XEI3 26-630 W459F): T1 sequence (Q9XEI3 26-630 W311F) with F286W, W434F
The note with it: substance is the substrate. As for the experimental part: as §1

The target in a further assay is T4, HvExoI W434A mutant (Hordeum vulgare, UniProt Q9XEI3, W459A).
T4 sequence (Q9XEI3 26-630 W459A): T1 sequence (Q9XEI3 26-630 W311F) with F286W, W434A
As for the experimental part: as §1

Substitutions are numbered along the chain they refer to.

For orientation: Km means the substrate concentration at which the rate is half of its maximum. Usually kcat stands for the number of substrate molecules converted per active site and unit of time at saturation. For the molecule laminarin, the Michaelis constant (Km) on HvExoI W286F mutant and at HvExoI W434F mutant was 200 ± 10 µM in each case. The figures for the kcat (on HvExoI W286F mutant; in assay [1]; on HvExoI W434F mutant) were 4.5 ± 0.3 s⁻¹, 0.4 ± 0.1 s⁻¹ and 8.0 ± 0.7 s⁻¹, respectively.

For `OC[C@H]1O[C@@H](O[C@H]2[C@H](O)[C@@H](CO)OC(O)[C@@H]2O)[C@H](O)[C@@H](O)[C@@H]1O` (stereo partly drawn) [Laminaribiose], the “fold decrease of kcat compared to WT” value on HvExoI W434A mutant is “about 21 fold”.

Source of the values: publication PMC9508125, “The evolutionary advantage of an aromatic clamp in plant family 3 glycoside exo-hydrolases” (Nature Communications, 2022).
